Measured values as given in US10092577B2, “Sterol derivatives for treating neurosensory hearing loss, and corresponding composition” (AFFICHEM, priority 2014, dated 2018).

How the values were obtained:
[1] = system: spiral ganglion neurons (SGNs); assay: Delayed treatment (after two weeks of artificial perilymph following neomycin): eABR thresholds; type: in vivo, guinea pigs; conditions: example 2, delayed treatment, 1 μM; from the fifth week; p<0.01 for DB
Description: The studies of examples 1 to 3 were performed on guinea pigs (250-500 g). All the animals were provided with a platinum-iridium electrode inserted into the cochlear in order to mimic a cochlear implant. The experiments were carried out in accordance with the protocol described by […] and collaborators (Shinohara et al., 2002, Proc. Nati. Acad. Sci. USA, 99, 1657-60). The procedure used was the same as in example 1, apart from the difference that, following the infusion of neomycin sulfate, the pumps were filled with artificial perilymph for two weeks. […] There was no eABR stimulation possible in the animals placed under the same conditions as defined above, but not treated by the products DA or DB.

[2] = system: spiral ganglion neurons (SGNs); assay: Quantification of the density of the SGNs in Rosenthal's canal and histological analysis of cochlea slices; type: in vivo, guinea pigs
Description: The studies of examples 1 to 3 were performed on guinea pigs (250-500 g). All the animals were provided with a platinum-iridium electrode inserted into the cochlear in order to mimic a cochlear implant. The experiments were carried out in accordance with the protocol described by Raphael and collaborators (Shinohara et al., 2002, Proc. Nati. Acad. Sci. USA, 99, 1657-60).
After the final measurement of the eABR threshold, the animals were heavily anaesthetised, intraperitoneally, using sodium pentobarbital (25 mg/kg) and infused intracardially with a saline solution (37° C.), which eliminates blood, then with a cold glutaraldehyde solution (2.5% in a 0.1 M phosphate buffer), which fixes the tissues. The temporal bone was removed, then the bulla was opened to reveal the cochlea. A small window was opened in the apex of the cochlea and the membrane of the round window so as to be able to delicately wash the cochlea with the glutaraldehyde solution. The cochlea was then decalcified in a solution of EDTA (0.1 M in the phosphate buffer) so as to make it possible to make cuts. After decalcification, the cochlea was dehydrated and enclosed in “plastic JB-4” (Polyscience Inc, Warrington, Pa.). The cochlea was sectioned into slices 4 μm thick. […] The six sections of Rosenthal's channel of six slices were analysed for each group of animals (Sigma Pro Scan) so as to count the spiral ganglion neurons. […]

Molecule: CC(C)CCC[C@@H](C)[C@H]1CC[C@H]2[C@@H]3C[C@@H](NCCc4c[nH]cn4)[C@@]4(O)C[C@@H](O)CC[C@]4(C)[C@H]3CC[C@]12C [DA, 6β-[2-(1H-imidazol-4-yl)-ethylamino]-cholestane-3β,5α-diol]
- eABR thresholds, treated group versus control group (artificial perilymph) [1]: no longer a significant difference

Molecule: CC(C)CCC[C@@H](C)[C@H]1CC[C@H]2[C@@H]3C[C@@H](NCCCNCCCCN)[C@@]4(O)C[C@@H](O)CC[C@]4(C)[C@H]3CC[C@]12C [DB, 6β-[3-(4-aminobutylamino)propylamino]-cholestane-3β,5α-diol]
- eABR thresholds, treated group versus control group (artificial perilymph) [1]: significant difference
- appearance of the axons of the SGNs (histological analysis, FIG. 5) ([2]; cochlea slices from the modiolus, axons not distinguishable in animals treated by AP): thin and long

B1: GDNF: glia cell-line derived neurotrophic factor (protein, UniProt P39905 78-211, looked up)
Glial cell line-derived …: SPDKQMAVLPRRERNRQAAAANPENSRGKGRRGQRGKNRGCVLTAIHLNVTDLGLGYETKEELIFRYCSGSCDAAETTYDKILKNLSRNRRLVSDKVGQACCRPIAFDDDLSFLDDNLVYHILRKHSAKRCGCI
- number of SGNs compared to the control group treated with the artificial perilymph ([2]; animals of example 1 (early treatment), GDNF 1 μg/ml, P<0.001): significant difference
